Test results from patent US9469608B2, “Thrombin inhibitors” (Merck Sharp & Dohme Corp., priority 2012, dated 2016).

Target: human α-thrombin (Homo sapiens (Human), UniProt P00734)
Assay: In vitro assay for determining proteinase inhibition (thrombin Ki)
Type: biochemical
Details: not given
Procedure: NMR determinations were made using 400 MHz field strength. Ki data was obtained according to the procedure described in Lewis, et al. Thromb. […] Reactions sensitive to moisture or air were performed under nitrogen or argon using anhydrous solvents and reagents. […] Typically, the analytical LC-MS system used consisted of a Waters ZQ platform with electrospray ionization in positive ion detection mode with an Agilent 1100 series HPLC with autosampler. The column was usually a Water Xterra MS C18, 3.0×50 mm, 5 μm. The flow rate was 1 mL/min, and the injection volume was 10 μL. UV detection was in the range 210-400 nm. […] Preparative HPLC purifications were usually performed using a mass spectrometry directed system. […] The mobile phases consisted of mixtures of acetonitrile (10-100%) in water containing 0.1% TFA. Flow rates were maintained at 50 mL/min, the injection volume was 1800 μL, and the UV detection range was 210-400 nm. Mobile phase gradients were optimized for the individual compounds. Reactions performed using microwave irradiation were normally carried out using an Emrys Optimizer manufactured by Personal Chemistry, or an Initiator manufactured by Biotage. Concentration of solutions was carried out on a rotary evaporator under reduced pressure. Flash chromatography was usually performed using a Biotage Flash Chromatography apparatus (Dyax Corp.) on silica gel ([…], 60 Å pore size) in pre-packed cartridges of the size noted. ^1H NMR spectra were acquired at 500 MHz spectrometers in CDCl3 solutions unless otherwise noted. Chemical shifts were reported in parts per million (ppm). Tetramethylsilane (TMS) was used as internal reference in CD3Cl solutions, and residual CH3OH peak or TMS was used as internal reference in CD3OD solutions. Coupling constants (J) were reported in hertz (Hz). Chiral analytical chromatography was performed on one of Chiralpak AS, Chiralpak AD, Chiralcel OD, Chiralcel IA, or Chiralcel OJ columns (250×4.6 mm) (Daicel Chemical Industries, Ltd.) with noted percentage of either ethanol in hexane (% Et/Hex) or isopropanol in heptane (% IPA/Hep) as isocratic solvent systems. Chiral preparative chromatography was conducted on one of Chiralpak AS, Chiralpak AD, Chiralcel OD, Ciralcel IA, or Chiralcel OJ columns (20×250 mm) (Daicel Chemical Industries, Ltd.) with desired isocratic solvent systems identified on chiral analytical chromatography or by supercritical fluid (SFC) conditions. Celite® (Fluka) diatomite is diatomaceous earth, and can be referred to as “celite”.
Relevant in vitro assays are referenced in Morrissette, et al., Bioorg. […] The assays were carried out at 25° C. in 0.05 M TRIS buffer pH 7.4, 0.15 M NaCl, 0.1% PEG. Trypsin assays also contained 1 mM CaC12.
Concentrations of stock solutions of Z-GPR-afc were determined from measurements of absorbance at 380 nm of the 7-amino-4-trifluoromethyl coumarin produced upon complete hydrolysis of an aliquot of the stock solution by thrombin.
Activity assays were performed by diluting a stock solution of substrate at least tenfold to a final concentration ≦0.1 Km into a solution containing enzyme or enzyme equilibrated with inhibitor. Times required to achieve equilibration between enzyme and inhibitor were determined in control experiments. Initial velocities of product formation in the absence (Vo) or presence of inhibitor (Vi) were measured. Assuming competitive inhibition, and that unity is negligible compared Km/[S], [I]/e, and [I]/e (where [S], [I], and e respectively represent the total concentrations, of substrate, inhibitor and enzyme), the equilibrium constant (Ki) for dissociation of the inhibitor from the enzyme can be obtained from the dependence of Vo/Vi on [I] shown in the following equation.

| SMILES | Ki |
| --- | --- |
| NCc1ccc(Cl)cc1CNC(=O)[C@@H]1CCCN1C(=O)[C@H]1CCCO1 [Compound 38-4, (S)—N-{2-(Aminomethyl)-5-chlorobenzyl}-1-{(R)-tetrahydrofuran-2-carbonyl}pyrrolidine-2-carboxamide-2,2,2-trifluoroacetate] | 0.1 µM |
| NCc1ccc(Cl)cc1CNC(=O)[C@@H]1CCN1C(=O)C1(O)CCc2ncccc21 (stereo partly drawn) [Compound 26-12, (2S)-N-{2-(Aminomethyl)-5-chlorobenzyl}-1-(5-hydroxy-6,7-dihydro-5H-cyclopenta[b]pyridine-5-carbonyl)azetidine-2-carboxamide bis(2,2,2-trifluoroacetate)] | 0.325 µM |
| NCc1ccc(Cl)cc1CNC(=O)[C@@H]1CCN1C(=O)C1OCc2ccccc21 (stereo partly drawn) [Compound 33-7, (2S)-N-{2-(Aminomethyl)-5-chlorobenzyl}-1-(1,3-dihydroisobenzofuran-1-carbonyl)azetidine-2-carboxamide-2,2,2-trifluoroacetate] | 0.039 µM |
| NCc1ccc(Cl)cc1CNC(=O)[C@@H]1CCCN1C(=O)C1(O)CCc2ncccc21 (stereo partly drawn) [Compound 19-4, (2S)-N-{2-(Aminomethyl)-5-chlorobenzyl}-1-(5-hydroxy-6,7-dihydro-5H-cyclopenta[b]pyridine-5-carbonyl)pyrrolidine-2-carboxamide-2,2,2-trifluoroacetate] | 0.049 µM |
| NCc1ccc(Cl)cc1CNC(=O)[C@@H]1CCCN1C(=O)c1cc(-c2ccncc2)c[nH]1 [Compound 13-10, (S)—N-{2-(Aminomethyl)-5-chlorobenzyl)-1-{4-(pyridin-4-yl)-1H-pyrrole-2-carbonyl) pyrrolidine-2-carboxamide-bis(2,2,2-trifluoroacetate)] | 0.0034 µM |

Same assay, conditions: 25° C., 0.05 M TRIS buffer pH 7.4, 0.15 M NaCl, 0.1% PEG; competitive inhibition assumed

| SMILES | Ki |
| --- | --- |
| NCc1ccc(Cl)cc1CNC(=O)[C@@H]1CCCN1C(=O)C1(O)CCc2cccnc21 (stereo partly drawn) [Compound 20-8, (2S)-N-(2-(Aminomethyl)-5-chlorobenzyl)-1-(7-hydroxy-6,7-dihydro-5H-cyclopenta[b]pyridine-7-carbonyl)pyrrolidine-2-carboxamide-bis(2,2,2-trifluoroacetate)] | 0.0077 µM |
| NCc1ccc(Cl)cc1CNC(=O)[C@@H]1CCCN1C(=O)c1cc(-c2cccnc2)c[nH]1 [Compound 14-5, (S)—N-{2-(Aminomethyl)-5-chlorobenzyl}-1-{4-(pyridin-3-yl)-1H-pyrrole-2-carbonyl}pyrrolidine-2-carboxamide bis(2,2,2-trifluoroacetate)] | 0.022 µM |
| NCc1ccc(Cl)cc1CNC(=O)[C@@H]1CCCN1C(=O)c1cc(Cc2ccncc2)c[nH]1 [Compound 7-1, (S)—N-{2-(Aminomethyl)-5-chlorobenzyl}-1-{4-(pyridin-4-ylmethyl)-1H-pyrrole-2-carbonyl}pyrrolidine-2-carboxamide-bis(2,2,2-trifluoroacetate)] | 0.017 µM |
| NCc1ccc(Cl)cc1CNC(=O)[C@@H]1CCCN1C(=O)C1(O)CCCc2cccnc21 (stereo partly drawn) [Compound 32-7, (2S)-N-{2-(aminomethyl)-5-chlorobenzyl}-1-(8-hydroxy-5,6,7,8-tetrahydroquinoline-8-carbonyl)pyrrolidine-2-carboxamide bis(2,2,2-trifluoroacetate)] | 0.0039 µM |
| NCc1ccc(Cl)cc1CNC(=O)[C@@H]1CCN1C(=O)C1CNc2ccccc21 (stereo partly drawn) [Compound 35-7, (2S)-N-{2-(Aminomethyl)-5-chlorobenzyl}-1-(indoline-3-carbonyl)azetidine-2-carboxamide bis(2,2,2-trifluoroacetate)] | 0.11 µM |
| NCc1ccc(Cl)cc1CNC(=O)[C@@H]1CCCN1C(=O)C1(O)CCCc2ncccc21 (stereo partly drawn) [Compound 30-6, (2S)-N-{2-(Aminomethyl)-5-chlorobenzyl}-1-(5-hydroxy-5,6,7,8-tetrahydroquinoline-5-carbonyl)pyrrolidine-2-carboxamide bis(2,2,2-trifluoroacetate)] | 0.011 µM |
| NCc1ccc(Cl)cc1CNC(=O)[C@@H]1CCCN1C(=O)c1ccc(C(F)(F)F)[nH]1 [Compound 4-5, (S)—N-{2-(Aminomethyl)-5-chlorobenzyl}-1-{5-(trifluoromethyl)-1H-pyrrole-2-carbonyl}pyrrolidine-2-carboxamide] | 0.027 µM |
| NCc1ccc(Cl)cc1CNC(=O)[C@@H]1CCCN1C(=O)C1OCc2ccccc21 (stereo partly drawn) [Compound 21-6, (2S)-N-{2-(Aminomethyl)-5-chlorobenzyl}-1-(1,3-dihydroisobenzofuran-1-carbonyl)pyrrolidine-2-carboxamide-2,2,2-trifluoroacetate] | 0.015 µM |
| CCOC(=O)c1ccc(C(=O)N2CCC[C@H]2C(=O)NCc2cc(Cl)ccc2CN)[nH]1 [Compound 3-5, (S)-Ethyl-5-[2-{(2-(aminomethyl)-5-chlorobenzyl)carbamoyl}-pyrrolidine-1-carbonyl]-1H-pyrrole-2-carboxylate-2,2,2-trifluoroacetate] | 0.047 µM |
| C[C@@]1(C(=O)NCc2cc(Cl)ccc2CN)CCCN1C(=O)[C@H]1CCC(=O)N1 [Compound 43, (S)-N-(2-(aminomethyl)-5-chlorobenzyl)-2-methyl-1-((R)-5-oxopyrrolidine-2-carbonyl)pyrrolidine-2-carboxamide] | 0.526 µM |
| NCc1ccc(Cl)cc1CNC(=O)[C@@H]1CCCN1C(=O)C1COc2ccccc21 (stereo partly drawn) [Compound 24-8, (2S)-N-{2-(Aminomethyl)-5-chlorobenzyl}-1-(2,3-dihydrobenzofuran-3-carbonyl)pyrrolidine-2-carboxamide-2,2,2-trifluoroacetate] | 0.0092 µM |
| NCc1ccc(Cl)cc1CNC(=O)[C@@H]1CCCN1C(=O)c1cc(C(O)c2ccccn2)c[nH]1 (stereo partly drawn) [Compound 11-2, (2S)-N-{2-(Aminomethyl)-5-chlorobenzyl}-1-[4-{hydroxyl(pyridine-2-yl)methyl}-1H-pyrrole-2-carbonyl]pyrrolidine-2-carboxamide] | 0.0097 µM |
| NCc1ccc(Cl)cc1CNC(=O)[C@@H]1CCCN1C(=O)c1cc(C(O)c2ccncc2)c[nH]1 (stereo partly drawn) [Compound 6-2, (2S)-N-{2-(Aminomethyl)-5-chlorobenzyl}-1-[4-{hydroxyl(pyridine-4-yl)methyl}-1H-pyrrole-2-carbonyl]pyrrolidine-2-carboxamide-bis(2,2,2-trifluoroacetate)] | 0.021 µM |
| NCc1ccc(Cl)cc1CNC(=O)[C@@H]1CCCN1C(=O)C1NCc2ccccc21 (single isomer, unassigned) [Compound 23-4b, bis(2,2,2-trifluoroacetate)] | 0.0011 µM |
| NCc1ccc(Cl)cc1CNC(=O)[C@@H]1CCCN1C(=O)c1cc(C(=O)c2ccccn2)c[nH]1 [Compound 10-7, (S)—N-{2-(Aminomethyl)-5-chlorobenzyl}-1-(4-picolinoyl-1H-pyrrole-2-carbonyl) pyrrolidine-2-carboxamide-bis(2,2,2-trifluoroacetate)] | 0.017 µM |
| O=C(NCc1cc(Cl)ccc1-n1cnnn1)[C@@H]1CCCN1C(=O)C1(O)CCc2cccnc21 (stereo partly drawn) [Compound 36-3, (2S)-N-{5-Chloro-2-(1H-tetrazol-1-yl)benzyl}-1-(7-hydroxy-6,7-dihydro-5H-cyclopenta[b]pyridine-7-carbonyl)pyrrolidine-2-carboxamide] | 0.0025 µM |
| NCc1ccc(Cl)cc1CNC(=O)[C@@H]1CCCN1C(=O)c1ncccn1 [Compound 42-3, (S)—N-(2-(Aminomethyl)-5-chlorobenzyl)-1-(pyrimidine-2-carbonyl)pyrrolidine-2-carboxamide bis(2,2,2-trifluoroacetate)] | 0.26 µM |
| NCc1ccc(Cl)cc1CNC(=O)[C@@H]1CCN1C(=O)C1NCc2ccccc21 (stereo partly drawn) [Compound 34-7, (2S)-N-{2-(aminomethyl)-5-chlorobenzyl}-1-(isoindoline-1-carbonyl)azetidine-2-carboxamide bis(2,2,2-trifluoroacetate)] | 0.0025 µM |
| NCc1ccc(Cl)cc1CNC(=O)[C@@H]1CCCN1C(=O)c1cc(C(=O)c2cccnc2)c[nH]1 [Compound 8-8, (S)—N-{2-(aminomethyl)-5-chlorobenzyl}-1-(4-nicotinoyl-1H-pyrrole-2-carbonyl)pyrrolidine-2-carboxamide-bis(2,2,2-trifluoro acetate] | 0.018 µM |
